Source: patent US9546156B2, “N-bicyclic aryl,N'-pyrazolyl urea, thiourea, guanidine cyanoguanidine compounds as TrkA kinase inhibitors” (Array BioPharma Inc., priority 2012, dated 2017)

What was measured:
Assay in all cases: Off-target kinase profiling (KinaseProfiler)
Assay type in all cases: biochemical
Settings in all cases: 10 μM, ATP near Km
[1] = target: T1, PKCalpha (Homo sapiens, UniProt P17252)
T1 construct: purchased Millipore, Inc. (KinaseProfiler service)
Protocol: (§1) A representative compound (Example 16) of the invention was tested for off-target kinase activity at a concentration of 10 μM by Millipore, Inc. in their KinaseProfiler™ service against all the kinases available in their full kinase panel. The compound was run in duplicate at a concentration of ATP near the Km for each individual kinase according to Millipore's specifications. The results are shown in Table B. Data are reported as percent of control (POC) and are the average of the two replicates.

[2] = target: T2, Mer (Homo sapiens, UniProt Q12866)
T2 construct: purchased Millipore, Inc. (KinaseProfiler service)
Protocol: as §1

[3] = target: T3, PKCbetaI (Homo sapiens, UniProt P05771)
T3 construct: purchased Millipore, Inc. (KinaseProfiler service)
Protocol: as §1

[4] = target: T4, DRAK1 (Homo sapiens, UniProt Q9UEE5)
T4 construct: purchased Millipore, Inc. (KinaseProfiler service)
Protocol: as §1

[5] = target: T5, PAK6 (Homo sapiens, UniProt Q9NQU5)
T5 construct: purchased Millipore, Inc. (KinaseProfiler service)
T5 sequence (Q9NQU5 whole entry): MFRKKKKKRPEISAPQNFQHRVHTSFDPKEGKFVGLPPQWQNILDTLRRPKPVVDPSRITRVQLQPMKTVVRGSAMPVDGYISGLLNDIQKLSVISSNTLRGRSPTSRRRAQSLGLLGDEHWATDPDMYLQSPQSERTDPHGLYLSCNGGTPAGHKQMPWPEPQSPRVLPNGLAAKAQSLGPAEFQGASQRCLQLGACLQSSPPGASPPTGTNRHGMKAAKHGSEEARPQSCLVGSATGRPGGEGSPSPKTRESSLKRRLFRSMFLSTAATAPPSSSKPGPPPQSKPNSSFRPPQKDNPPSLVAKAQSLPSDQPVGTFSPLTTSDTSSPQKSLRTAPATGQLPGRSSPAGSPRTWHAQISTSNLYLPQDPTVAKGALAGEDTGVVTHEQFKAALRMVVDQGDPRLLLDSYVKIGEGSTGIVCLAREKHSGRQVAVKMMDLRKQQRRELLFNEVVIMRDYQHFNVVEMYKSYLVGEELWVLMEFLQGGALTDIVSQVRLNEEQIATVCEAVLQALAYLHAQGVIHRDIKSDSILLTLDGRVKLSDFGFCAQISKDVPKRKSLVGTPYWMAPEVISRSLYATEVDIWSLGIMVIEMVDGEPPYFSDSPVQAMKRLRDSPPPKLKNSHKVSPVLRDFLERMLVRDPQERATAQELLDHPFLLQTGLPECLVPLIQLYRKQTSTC
Protocol: as §1

[6] = target: T6, Tie2 (Homo sapiens, UniProt Q02763)
T6 construct: purchased Millipore, Inc. (KinaseProfiler service)
Protocol: as §1

[7] = target: T7, IR Activated (Homo sapiens, UniProt P06213)
T7 construct: purchased Millipore, Inc. (KinaseProfiler service)
Protocol: as §1

[8] = target: T8, c-RAF (Homo sapiens, UniProt P04049, Y340D/Y341D)
T8 construct: purchased Millipore, Inc. (KinaseProfiler service)
Protocol: as §1

[9] = target: T9, ERK2 (Homo sapiens, UniProt P28482)
T9 construct: purchased Millipore, Inc. (KinaseProfiler service)
T9 sequence (P28482 whole entry): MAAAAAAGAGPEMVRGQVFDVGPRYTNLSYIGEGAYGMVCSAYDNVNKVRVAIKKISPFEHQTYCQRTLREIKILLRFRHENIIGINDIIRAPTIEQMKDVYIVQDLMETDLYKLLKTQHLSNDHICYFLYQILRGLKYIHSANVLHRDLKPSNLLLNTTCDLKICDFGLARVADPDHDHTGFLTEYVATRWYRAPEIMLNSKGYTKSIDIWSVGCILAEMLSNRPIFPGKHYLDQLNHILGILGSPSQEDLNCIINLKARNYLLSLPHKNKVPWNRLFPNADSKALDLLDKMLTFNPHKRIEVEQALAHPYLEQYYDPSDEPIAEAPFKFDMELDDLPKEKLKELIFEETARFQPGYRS
Protocol: as §1

[10] = target: T10, JAK2 (Homo sapiens, UniProt O60674)
T10 construct: purchased Millipore, Inc. (KinaseProfiler service)
Protocol: as §1

[11] = target: T11, Txk (Homo sapiens, UniProt P42681)
T11 construct: purchased Millipore, Inc. (KinaseProfiler service)
Protocol: as §1

[12] = target: T12, CLK3 (Homo sapiens, UniProt P49761)
T12 construct: purchased Millipore, Inc. (KinaseProfiler service)
Protocol: as §1

[13] = target: T13, EphB3 (Homo sapiens, UniProt P54753)
T13 construct: purchased Millipore, Inc. (KinaseProfiler service)
Protocol: as §1

[14] = target: T14, PRK2 (Homo sapiens, UniProt Q16513)
T14 construct: purchased Millipore, Inc. (KinaseProfiler service)
Protocol: as §1

[15] = target: T15, p38beta (Homo sapiens, UniProt Q15759)
T15 construct: purchased Millipore, Inc. (KinaseProfiler service)
T15 sequence (Q15759 whole entry): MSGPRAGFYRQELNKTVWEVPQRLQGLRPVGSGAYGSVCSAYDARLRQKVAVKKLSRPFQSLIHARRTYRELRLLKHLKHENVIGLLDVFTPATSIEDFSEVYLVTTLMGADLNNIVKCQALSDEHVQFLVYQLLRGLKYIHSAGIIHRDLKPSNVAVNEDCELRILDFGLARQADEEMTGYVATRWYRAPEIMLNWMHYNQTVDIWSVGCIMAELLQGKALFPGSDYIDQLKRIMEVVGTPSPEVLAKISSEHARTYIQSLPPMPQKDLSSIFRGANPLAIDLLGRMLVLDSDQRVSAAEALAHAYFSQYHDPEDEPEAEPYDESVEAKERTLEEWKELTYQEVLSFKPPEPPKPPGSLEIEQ
Protocol: as §1

[16] = target: T16, CDK9/cyclinT1 (Homo sapiens, UniProt P50750)
T16 construct: purchased Millipore, Inc. (KinaseProfiler service)
Protocol: as §1

[17] = target: T17, STK33 (Homo sapiens, UniProt Q9BYT3)
T17 construct: purchased Millipore, Inc. (KinaseProfiler service)
T17 sequence (Q9BYT3 whole entry): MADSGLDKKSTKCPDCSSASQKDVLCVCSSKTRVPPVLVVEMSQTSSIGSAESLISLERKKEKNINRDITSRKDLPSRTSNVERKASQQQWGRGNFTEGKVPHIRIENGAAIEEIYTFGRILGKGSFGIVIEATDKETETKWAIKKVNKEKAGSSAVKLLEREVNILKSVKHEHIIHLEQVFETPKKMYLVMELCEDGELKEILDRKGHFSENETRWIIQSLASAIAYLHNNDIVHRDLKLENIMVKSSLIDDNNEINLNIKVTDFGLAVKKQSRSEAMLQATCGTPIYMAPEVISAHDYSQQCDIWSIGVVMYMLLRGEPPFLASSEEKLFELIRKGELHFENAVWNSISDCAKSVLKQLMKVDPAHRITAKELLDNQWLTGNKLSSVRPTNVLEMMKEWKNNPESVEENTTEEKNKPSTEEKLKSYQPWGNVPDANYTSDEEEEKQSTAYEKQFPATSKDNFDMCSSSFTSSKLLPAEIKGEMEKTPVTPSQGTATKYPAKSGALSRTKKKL
Protocol: as §1

[18] = target: T18, RIPK2 (Homo sapiens, UniProt O43353)
T18 construct: purchased Millipore, Inc. (KinaseProfiler service)
Protocol: as §1

[19] = target: T19, Hck (Homo sapiens, UniProt P08631)
T19 construct: purchased Millipore, Inc. (KinaseProfiler service)
T19 sequence (P08631 whole entry): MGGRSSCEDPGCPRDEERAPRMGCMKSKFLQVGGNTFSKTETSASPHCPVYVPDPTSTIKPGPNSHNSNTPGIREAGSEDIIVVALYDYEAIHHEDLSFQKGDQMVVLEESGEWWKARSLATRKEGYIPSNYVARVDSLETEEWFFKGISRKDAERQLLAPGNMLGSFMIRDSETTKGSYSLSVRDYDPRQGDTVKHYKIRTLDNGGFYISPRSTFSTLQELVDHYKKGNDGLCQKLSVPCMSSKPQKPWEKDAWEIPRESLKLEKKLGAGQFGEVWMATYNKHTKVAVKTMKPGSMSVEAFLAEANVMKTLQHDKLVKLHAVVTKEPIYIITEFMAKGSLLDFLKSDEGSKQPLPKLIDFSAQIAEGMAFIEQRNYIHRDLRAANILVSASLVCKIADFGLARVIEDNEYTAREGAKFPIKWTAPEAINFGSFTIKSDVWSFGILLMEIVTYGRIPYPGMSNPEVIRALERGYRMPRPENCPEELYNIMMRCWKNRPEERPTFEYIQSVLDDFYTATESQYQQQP
Protocol: as §1

[20] = target: T20, MELK (Homo sapiens, UniProt Q14680)
T20 construct: purchased Millipore, Inc. (KinaseProfiler service)
Protocol: as §1

[21] = target: T21, CK2alpha2 (Homo sapiens, UniProt P19784)
T21 construct: purchased Millipore, Inc. (KinaseProfiler service)
Protocol: as §1

[22] = target: T22, MARK1 (Homo sapiens, UniProt Q9P0L2)
T22 construct: purchased Millipore, Inc. (KinaseProfiler service)
Protocol: as §1

[23] = target: T23, CAMK2b (Homo sapiens, UniProt Q13554)
T23 construct: purchased Millipore, Inc. (KinaseProfiler service)
Protocol: as §1

[24] = target: T24, CK1gamma3 (Homo sapiens, UniProt Q9Y6M4)
T24 construct: purchased Millipore, Inc. (KinaseProfiler service)
Protocol: as §1

[25] = target: T25, PKCzeta (Homo sapiens, UniProt Q05513)
T25 construct: purchased Millipore, Inc. (KinaseProfiler service)
Protocol: as §1

[26] = target: T26, GRK7 (Homo sapiens, UniProt Q8WTQ7)
T26 construct: purchased Millipore, Inc. (KinaseProfiler service)
T26 sequence (Q8WTQ7 whole entry): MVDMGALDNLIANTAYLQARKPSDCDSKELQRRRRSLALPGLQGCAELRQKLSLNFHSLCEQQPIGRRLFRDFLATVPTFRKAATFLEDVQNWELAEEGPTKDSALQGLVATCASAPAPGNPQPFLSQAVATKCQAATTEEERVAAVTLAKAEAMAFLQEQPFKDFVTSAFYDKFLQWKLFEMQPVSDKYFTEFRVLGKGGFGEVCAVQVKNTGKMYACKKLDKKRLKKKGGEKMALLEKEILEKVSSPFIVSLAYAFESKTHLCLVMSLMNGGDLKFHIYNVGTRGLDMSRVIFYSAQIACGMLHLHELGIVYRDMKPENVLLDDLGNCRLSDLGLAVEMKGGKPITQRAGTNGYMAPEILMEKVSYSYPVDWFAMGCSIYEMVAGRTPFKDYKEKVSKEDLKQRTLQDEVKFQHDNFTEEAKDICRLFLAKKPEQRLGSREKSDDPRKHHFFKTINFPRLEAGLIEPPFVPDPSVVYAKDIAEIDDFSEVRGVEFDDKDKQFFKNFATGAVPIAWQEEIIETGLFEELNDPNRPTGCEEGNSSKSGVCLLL
Protocol: as §1

[27] = target: T27, ERK1 (Homo sapiens, UniProt P27361)
T27 construct: purchased Millipore, Inc. (KinaseProfiler service)
Protocol: as §1

[28] = target: T28, CAMK4 (Homo sapiens, UniProt Q16566)
T28 construct: purchased Millipore, Inc. (KinaseProfiler service)
Protocol: as §1

[29] = target: T29, AURKA (Homo sapiens, UniProt O14965)
T29 construct: purchased Millipore, Inc. (KinaseProfiler service)
Protocol: as §1

[30] = target: T30, TrkA (Homo sapiens, UniProt P04629)
T30 construct: purchased Millipore, Inc. (KinaseProfiler service)
T30 sequence (P04629 33-796): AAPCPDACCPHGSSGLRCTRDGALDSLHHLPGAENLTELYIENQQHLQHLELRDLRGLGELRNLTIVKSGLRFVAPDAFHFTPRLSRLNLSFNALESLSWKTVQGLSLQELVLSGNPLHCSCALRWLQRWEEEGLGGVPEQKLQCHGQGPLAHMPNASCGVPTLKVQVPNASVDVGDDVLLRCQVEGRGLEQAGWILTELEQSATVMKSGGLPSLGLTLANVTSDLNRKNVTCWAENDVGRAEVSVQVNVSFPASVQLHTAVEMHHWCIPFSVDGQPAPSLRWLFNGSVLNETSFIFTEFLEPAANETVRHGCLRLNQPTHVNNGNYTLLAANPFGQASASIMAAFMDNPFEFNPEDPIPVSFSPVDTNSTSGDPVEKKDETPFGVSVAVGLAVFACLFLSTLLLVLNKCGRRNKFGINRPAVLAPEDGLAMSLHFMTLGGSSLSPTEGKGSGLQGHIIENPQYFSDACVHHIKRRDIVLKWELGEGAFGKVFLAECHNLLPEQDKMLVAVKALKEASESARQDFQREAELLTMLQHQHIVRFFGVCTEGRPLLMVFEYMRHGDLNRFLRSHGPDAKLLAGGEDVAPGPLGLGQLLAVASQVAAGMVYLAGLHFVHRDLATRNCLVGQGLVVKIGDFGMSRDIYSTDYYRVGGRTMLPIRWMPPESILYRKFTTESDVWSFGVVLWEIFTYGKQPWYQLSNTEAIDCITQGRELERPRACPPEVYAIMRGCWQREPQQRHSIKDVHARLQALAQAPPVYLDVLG
Protocol: as §1

[31] = target: T31, PKCepsilon (Homo sapiens, UniProt Q02156)
T31 construct: purchased Millipore, Inc. (KinaseProfiler service)
Protocol: as §1

[32] = target: T32, SRPK1 (Homo sapiens, UniProt Q96SB4)
T32 construct: purchased Millipore, Inc. (KinaseProfiler service)
T32 sequence (Q96SB4 whole entry): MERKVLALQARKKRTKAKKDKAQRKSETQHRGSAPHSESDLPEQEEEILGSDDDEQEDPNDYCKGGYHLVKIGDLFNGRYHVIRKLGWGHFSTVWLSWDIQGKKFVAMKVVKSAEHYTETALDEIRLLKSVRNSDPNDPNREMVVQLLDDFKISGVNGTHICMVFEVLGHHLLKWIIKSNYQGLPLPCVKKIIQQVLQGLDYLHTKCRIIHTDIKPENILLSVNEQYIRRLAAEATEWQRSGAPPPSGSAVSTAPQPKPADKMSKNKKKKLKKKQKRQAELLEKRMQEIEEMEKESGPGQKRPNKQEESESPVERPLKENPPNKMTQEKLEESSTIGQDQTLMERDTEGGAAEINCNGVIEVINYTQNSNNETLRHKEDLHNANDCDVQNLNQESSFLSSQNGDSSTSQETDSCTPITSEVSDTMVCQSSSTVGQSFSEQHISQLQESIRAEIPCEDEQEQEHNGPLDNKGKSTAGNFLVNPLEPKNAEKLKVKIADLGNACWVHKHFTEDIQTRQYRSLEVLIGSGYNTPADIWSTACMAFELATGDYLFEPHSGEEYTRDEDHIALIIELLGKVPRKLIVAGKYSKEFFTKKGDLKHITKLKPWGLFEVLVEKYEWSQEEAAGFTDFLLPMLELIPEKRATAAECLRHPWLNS
Protocol: as §1

[33] = target: T33, LIMK1 (Homo sapiens, UniProt P53667)
T33 construct: purchased Millipore, Inc. (KinaseProfiler service)
Protocol: as §1

[34] = target: T34, Abl2 (Homo sapiens, UniProt P42684)
T34 construct: purchased Millipore, Inc. (KinaseProfiler service)
Protocol: as §1

[35] = target: T35, EphB2 (Homo sapiens, UniProt P29323)
T35 construct: purchased Millipore, Inc. (KinaseProfiler service)
Protocol: as §1

[36] = target: T36, FGFR4 (Homo sapiens, UniProt P22455)
T36 construct: purchased Millipore, Inc. (KinaseProfiler service)
Protocol: as §1

[37] = target: T37, Syk (Homo sapiens, UniProt P43405)
T37 construct: purchased Millipore, Inc. (KinaseProfiler service)
Protocol: as §1

[38] = target: T38, MKK6 (Homo sapiens, UniProt P52564)
T38 construct: purchased Millipore, Inc. (KinaseProfiler service)
Protocol: as §1

[39] = target: T39, Haspin (Homo sapiens, UniProt Q8TF76)
T39 construct: purchased Millipore, Inc. (KinaseProfiler service)
Protocol: as §1

[40] = target: T40, NEK7 (Homo sapiens, UniProt Q8TDX7)
T40 construct: purchased Millipore, Inc. (KinaseProfiler service)
T40 sequence (Q8TDX7 whole entry): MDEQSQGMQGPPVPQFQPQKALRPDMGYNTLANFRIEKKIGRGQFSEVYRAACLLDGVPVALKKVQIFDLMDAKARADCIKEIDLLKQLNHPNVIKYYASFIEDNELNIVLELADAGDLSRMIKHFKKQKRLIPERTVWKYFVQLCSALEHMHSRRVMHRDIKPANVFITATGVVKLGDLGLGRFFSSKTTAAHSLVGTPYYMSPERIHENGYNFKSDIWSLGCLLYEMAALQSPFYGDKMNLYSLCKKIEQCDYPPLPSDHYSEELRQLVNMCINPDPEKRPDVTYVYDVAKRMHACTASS
Protocol: as §1

[41] = target: T41, MAPKAP-K2 (Homo sapiens, UniProt P49137)
T41 construct: purchased Millipore, Inc. (KinaseProfiler service)
Protocol: as §1

COCc1ccc2cccc(NC(=O)Nc3c(C)c(-c4cnn(C)c4)nn3-c3ccccc3)c2c1 [Example 16, 1-(1′,4-dimethyl-1-phenyl-1H,1′H-[3,4′-bipyrazol]-5-yl)-3-(7-(methoxymethyl)naphthalen-1-yl)urea]
Avg POC [1]: 97 POC
Avg POC [2]: 116 POC
Avg POC [3]: 97 POC
Avg POC [4]: 136 POC
Avg POC [5]: 125 POC
Avg POC [6]: 148.5 POC
Avg POC [7]: 102.5 POC
Avg POC [8]: 114 POC
Avg POC [9]: 116.5 POC
Avg POC [10]: 181 POC
Avg POC [11]: 131 POC
Avg POC [12]: 107 POC
Avg POC [13]: 102.5 POC
Avg POC [14]: 142.5 POC
Avg POC [15]: 117 POC
Avg POC [16]: 114.5 POC
Avg POC [17]: 106 POC
Avg POC [18]: 107 POC
Avg POC [19]: 135.5 POC
Avg POC [20]: 135.5 POC
Avg POC [21]: 101 POC
Avg POC [22]: 94.5 POC
Avg POC [23]: 105 POC
Avg POC [24]: 120 POC
Avg POC [25]: 123 POC
Avg POC [26]: 97 POC
Avg POC [27]: 110 POC
Avg POC [28]: 127 POC
Avg POC [29]: 128 POC
Avg POC [30]: 2 POC
Avg POC [31]: 137 POC
Avg POC [32]: 119 POC
Avg POC [33]: 105.5 POC
Avg POC [34]: 119.5 POC
Avg POC [35]: 109 POC
Avg POC [36]: 129 POC
Avg POC [37]: 117.5 POC
Avg POC [38]: 94.5 POC
Avg POC [39]: 137.5 POC
Avg POC [40]: 123 POC
Avg POC [41]: 128 POC
